In patent US20060167276A1, “Clausenamide c5-hydroxyl derivatives and n-substituted derivatives, processes for their preparation, its composition and use” (priority 2002, published 2006):

What was measured:
[1] = several behavioral studies; cited from earlier work
[2] = in vivo and in vitro; cited from earlier work
[3] = tested on: C17-2 mouse brain neural stem cells; test: Cell proliferation of mouse brain neural stem cells (MTT, OD 490 nm); assay type: cell-based; settings: for Result (OD value): MTT at 4th day, OD 490 nm; for Cell proliferation %: control group = 100%
Protocol: C17-2 mouse brain neural stem cells (C17-2 cells) were continuously cultured in 1640 medium with 10% horse serum and 10% fetal bovine serum at 5% CO2 and 37° C., dissociated to single cell suspension by 0.1% trypsin solution, centrifuged at 1,000 rpm×5 min and rinsed with medium. The cells were seeded in a 96-well plate, 1×10^3 cells per well, 3 well per group, continuously cultured. After 24 hours, the test compounds were added, doses of each of the C5-hydroxyl substituted clausenamides and N-substituted clausenamide derivatives were 0.1 μM, 1 μM and 10 μM respectively. The growth situation of the cells was observed under a microscope, once daily. At the 4th day, media in each well were pipetted, phosphate buffer solution containing MTT was added. 4 Hours later, the fluid was discarded, and a DMSO solution was added. The cells were incubated at 37° C. for 10 min under shaken. OD values on 490 nm of each well were detected. Set the growth rate of the control group as 100%, and the growth rates of each dose were given by comparison with the control group and t-tested.

rat hippocampus = test: LTP / synaptic transmission in rat hippocampus (population spike amplitude, dentate gyrus); assay type: in vivo; settings: lateral ventricle, prior administration = 100
From the text: Male adult SD Rats (5 per group) were anesthetized with 20% (w/v) urethane carbamate (1.0 g·kg^−1, ip) and fixed in a stereotaxic head holder. According to the reference of Pellegrino stereotaxic spectrum of rat, recording electrodes (stainless steel needle of 0.2 mm diameter were insulted except for 0.2 mm tip) were placed in the dentate gyrus granule cell layer. The stimulating electrodes (two stainless steel needles of 0.15 mm diameter coated with Teflon except for the 0.2 mm tip, and the distance between two needles was 0.5 mm) were planted between the fibre of perforant path (PP) in rat. Continuous pulse was provided by electronic stimulator, and delivered to PP through stimulus isolator and stimulating electrodes. Electrode depth was then adjusted until a typical excitatory postsynaptic potential (EPSP) was observed. Electric current was magnified by amplifier and collected by computer, then processed by DataWave software. The stimulus intensity was adjusted to produce population spike (PS) with a slope that was ≈50% of the maximum. Single-pulse test stimuli were at an interval of 30 sec during the experiment. Population spike amplitude (PSA) was recorded and the relatively percent of PSA was calculated according to the formula (PSA/basic value).

Question: For `CN1C(=O)C(O)C(c2ccccc2)C1C(O)c1ccccc1` (racemic) [clausenamide], which nootropic effect [1] is on record?
Answer: Its nootropic effect is “Significant nootropic effect”.

Question: With `O=C1C(O)C(c2ccccc2)C(C(O)c2ccccc2)N1CO` (single isomer, unassigned; (-)) [(−)CM1, (−) N-hydroxymethyl norclausenamide] as the compound, how does the “content in the metabolites of (−) clausenamide compared with the corresponding (+) isomers in the metabolites of (+) clausenamide” value [2] read?
Answer: Its value is “significantly higher”.

Question: With `CN1C(=O)C(O)C(c2ccccc2)C1(O)C(O)c1ccccc1` (single isomer, unassigned; (-)) [(−)CM2, (−) 5-hydroxyclausenamide] as the compound, how does the “content in the metabolites of (−) clausenamide compared with the corresponding (+) isomers in the metabolites of (+) clausenamide” value [2] read?
Answer: The value was “significantly higher”.

Question: With `CN1C(=O)[C@@H](O)[C@H](c2ccccc2)[C@]1(O)[C@@H](O)c1ccccc1` [(−)II3, (−)-(3S,4S,5S,6S)-5-hydroxy-clausenamide] as the compound, how does the “Result (OD value)” value ([3]; dose 10^−5 M) read?
Answer: Its value is 0.088 ± 0.006.

Question: What about the Cell proliferation % ([3]; dose 10^−5 M) of the same compound?
Answer: Its Cell proliferation % is 64.23%.

Question: What about the “Result (OD value)” value ([3]; dose 10^−6 M) of the same compound?
Answer: Its value is 0.187 ± 0.020.

Question: What about the Cell proliferation % ([3]; dose 10^−6 M) of the same compound?
Answer: The Cell proliferation % was 136.50%.

Question: What about the “Result (OD value)” value ([3]; dose 10^−7 M) of the same compound?
Answer: Its value is 0.168 ± 0.076.

Question: And the Cell proliferation % ([3]; dose 10^−7 M)?
Answer: Its Cell proliferation % is 122.63%.

Question: What about the “Relative PS (PSA %)” value (rat hippocampus; 15 min after administration) of the same compound?
Answer: Its value is 92.83 ± 17.54%.

Question: What about the “Relative PS (PSA %)” value (rat hippocampus; 30 min after administration) of the same compound?
Answer: Its value is 87.11 ± 30.54%.

Question: And the “Relative PS (PSA %)” value (rat hippocampus; 45 min after administration)?
Answer: Its value is 97.34 ± 25.71%.

Question: What about the “Relative PS (PSA %)” value (rat hippocampus; 60 min after administration) of the same compound?
Answer: Its value is 98.30 ± 28.59%.
